Data as given in patent US5300672A (priority 1992, dated 1994).
≈ marks a conversion by molar mass, not a printed value. Read-outs that look alike come from different tables or passages of the source.

Key:
[1] = test system: Puccinia graminis (f. sp. tritici Race 15B-2); test: whole plant or invertebrate; assay type: in vivo; conditions: Puccinia graminis, 336 h, read-out: % Control WSR
Escherichia coli [2] = test: Broth two-fold serial dilution MIC test (Table 3), E.c; assay type: cell-based; conditions: gram negative, dilution series 500 to 4 ppm
Text: (§1) A minimum inhibitory concentration (MIC) value is obtained using a broth, two-fold serial dilution test performed as follows: A stock solution or dispersion of the test compound, typically at a concentration of 1%, is made in a 5:3:2 solvent solution of acetone, methanol, and water. A volume of the stock solution is dispensed into culture media to give an initial starting test concentration of 500 ppm compound.
(§2) When the test is ready to be done, each vessel in the dilution series, except the first vessel, contains an equal volume of compound free broth. The first vessel contains twice the volume of broth with the starting concentration of test compound. One half of the broth from the first vessel is transferred to the second vessel. After being mixed, one half the resulting volume is removed from the second vessel and transferred to the third vessel. The entire cycle is repeated sufficiently to give a series of concentrations amounting to 500, 250, 125, 63, 31, 16, 8, and 4 ppm, respectively.
(§3) Each vessel is then inoculated with a cell suspension of the appropriate test organism. Bacteria are grown in broth and fungi on agar slants for a time and at a temperature appropriate to the species being tested. At the end of the growth period, the broth is vortexed to disperse the cells. In the case of fungi, the spores are harvested by pipetting water onto the slant and dislodging the spores with a sterile loop. The cell/spore suspension is standardized by controlling incubation time, temperature, and the volume of the diluent. The suspension is then used to inoculate the vessels containing the broth compound. The vessels are then incubated at the appropriate temperature. After the incubation, the vessels are examined for growth/no growth. The minimum inhibitory concentration (MIC) is defined as the lowest concentration of compound that results in complete inhibition of growth of the test organism.
Escherichia coli (E.c), gram negative

Pseudomonas aerugenosa [3] = test: Broth two-fold serial dilution MIC test (Table 3), Ps.ae; assay type: cell-based; conditions: gram negative, dilution series 500 to 4 ppm
Text: as §1, §2, §3
Pseudomonas aerugenosa (Ps.ae), gram negative

Staphylococcus aureus [4] = test: Broth two-fold serial dilution MIC test (Table 3), S.a; assay type: cell-based; conditions: gram positive, dilution series 500 to 4 ppm
Text: as §1, §2, §3
Staphylococcus aureus (S.a), gram positive

Pseudomonas fluorescens [5] = test: Broth two-fold serial dilution MIC test (Table 3), Ps.fl; assay type: cell-based; conditions: gram negative, dilution series 500 to 4 ppm
Text: as §1, §2, §3
Pseudomonas fluorescens (Ps.fl), gram negative

Phytophthora infestans = test: whole plant or invertebrate; assay type: in vivo; conditions: Phytophthora infestans, in Solanum lycopersicum, 96 h; for pest or weed control at 200 ppm: read-out: % Control TLB, application rate 200 ppm
Aureobasidium pullulans [6] = test: Broth two-fold serial dilution MIC test (Table 3), A.p; assay type: cell-based; conditions: dilution series 500 to 4 ppm
Text: as §1, §2, §3
Aureobasidium pullulans (A.p)

[7] = test system: Pseudoperonospora cubensis; test: whole plant or invertebrate; assay type: in vivo; conditions: Pseudoperonospora cubensis, in Cucumis sativus, 168 h; read-out: % Control CDM
Piricularia oryzae = test: whole plant or invertebrate; assay type: in vivo; conditions: Pyricularia oryzae; for pest or weed control at 50 ppm: read-out: % Control RB, application rate 50 ppm; for pest or weed control at 100 ppm: read-out: % Control RB, application rate 100 ppm; for pest or weed control at 200 ppm: read-out: % Control RB, application rate 200 ppm
Aspergillus niger [8] = test: Broth two-fold serial dilution MIC test (Table 3), A.n; assay type: cell-based; conditions: dilution series 500 to 4 ppm
Text: as §1, §2, §3

Pseudomonas fluorescens [9] = test: Alternate Minimum Inhibitory Concentrations Test (Table 4), Ps.fl; assay type: cell-based; conditions: Pseudomonas fluorescens; Table 4 alternate test; 250 ppm to 0.8 ppm in TSB, 72 hours, 30° C.; read-out: MIC Ps.fl
Summary of the method: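 Broth microdilution MIC in TSB: compound (from acetone stock) serially diluted 1:1 from 250 ppm to 0.8 ppm, inoculated with diluted 24 h culture. After 3 days at 30 °C, the lowest concentration with no growth was recorded as MIC.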

[10] = test system: Erysiphe graminis (f. sp. tritici); test: whole plant or invertebrate; assay type: in vivo; conditions: Blumeria graminis; read-out: % Control WPM
[11] = test system: Puccinia recondita (f. sp. tritici Races PKB and PLD); test: whole plant or invertebrate; assay type: in vivo; conditions: Puccinia recondita, 240 h; read-out: % Control WLR
[12] = test system: Pellicularia filamentosa (f. sp. sasiki); test: whole plant or invertebrate; assay type: in vivo; conditions: 120 h; read-out: % Control RSB
Escherichia coli [13] = test: Alternate Minimum Inhibitory Concentrations Test (Table 4), E.c; assay type: cell-based; conditions: Table 4 alternate test, 250 ppm to 0.8 ppm in TSB
Candida albicans = test: Alternate Minimum Inhibitory Concentrations Test (Table 4), C.alb; assay type: cell-based; conditions: Table 4 alternate test, 250 ppm to 0.8 ppm in TSB
Pseudomonas aerugenosa [14] = test: Alternate Minimum Inhibitory Concentrations Test (Table 4), Ps.ae; assay type: cell-based; conditions: Table 4 alternate test, 250 ppm to 0.8 ppm in TSB
Aureobasidium pullulans [15] = test: Alternate Minimum Inhibitory Concentrations Test (Table 4), A.p; assay type: cell-based; conditions: Table 4 alternate test, 250 ppm to 0.8 ppm in TSB
Aspergillus niger [16] = test: Alternate Minimum Inhibitory Concentrations Test (Table 4), A.n; assay type: cell-based; conditions: Table 4 alternate test, 250 ppm to 0.8 ppm in TSB
Staphylococcus aureus [17] = test: Alternate Minimum Inhibitory Concentrations Test (Table 4), S.a; assay type: cell-based; conditions: Table 4 alternate test, 250 ppm to 0.8 ppm in TSB
Pythium ultimum = Pythium ultimum in vitro Fungitoxicity Assay in liquid culture; assay type: cell-based, Pythium ultimum (ATCC 26083); conditions: Globisporangium ultimum; mycelial dry weight, 48 h at 25° C., shaking at 60 rpm; read-out: EC 50
Method: Selected compounds of Examples 1-120 were subjected also to the following in vitro fungitoxicity assay against Pythium ultimum in a liquid culture, with the results as indicated in Table 6.
Pythium ultimum Fungitoxicity Assay
A dilution series of the test compound was prepared in dimethylsulfoxide, and 0.1 ml of each dilution was added to 19.9 ml of a liquid asparagine-sucrose medium (D. C. Erwin and K. Katznelson (1971), Can. J. Microbiol. 7, 15) in 9 cm diameter petri dishes to give the desired final concentrations of test compound. Plates were inoculated with mycelial plugs, 7 mm diameter, taken from the growing edge of 48 h old cultures of Pythium ultimum, (ATCC 26083), grown on potato dextrose agar. Two replicate plates were used for each treatment. The increase in mycelial dry weight was determined after growth for 48 h at 25° C. with shaking at 60 rpm. EC50 values were calculated from dose response curves.

[18] = read-out: % Control TLB, application rate 100 ppm

SMILES | MIC (Escherichia coli [2]) | MIC (Pseudomonas aerugenosa [3]) | MIC (Staphylococcus aureus [4]) | MIC (Pseudomonas fluorescens [5]) | pest or weed control at 100 ppm (Phytophthora infestans; read-out: % Control TLB) | MIC (Aureobasidium pullulans [6]) | MIC (Aspergillus niger [8]) | MIC (Pseudomonas fluorescens [9]) | pest or weed control at 200 ppm [1] | pest or weed control at 100 ppm [10] | pest or weed control at 100 ppm [11] | pest or weed control at 50 ppm [7] | pest or weed control at 100 ppm [12] | MIC (Escherichia coli [13]) | pest or weed control at 200 ppm [10] | MIC (Candida albicans) | MIC (Pseudomonas aerugenosa [14]) | pest or weed control at 200 ppm (Phytophthora infestans) | MIC (Aureobasidium pullulans [15]) | pest or weed control at 200 ppm [7] | other results
CCCCCCCCNC(=O)/C=C\SC[C@H](N)C(=O)O [Compound 47, N-octyl-cis-3-[(2-amino-2-carboxyethane)thio]acrylamide] | > 500 µg/mL | > 500 µg/mL | > 500 µg/mL | > 500 µg/mL | 90% | > 500 µg/mL | > 500 µg/mL | > 250 µg/mL |  |  |  |  |  |  |  |  |  |  |  |  | pest or weed control at 50 ppm [1]: 90%; pest or weed control at 12 ppm [7]: 70%; pest or weed control at 50 ppm (Piricularia oryzae): 0%
CCCCCCCCNC(=O)/C=C\SC(=O)CCC1CCCC1 [Compound 11, N-octyl-cis-3-[(3-cyclopentanepropanoyl)thio]acrylamide] | > 500 µg/mL | > 500 µg/mL | > 500 µg/mL | > 500 µg/mL | 90% | < 4 µg/mL | 250 µg/mL (≈ 736 µM) |  | 90% | 0% | 50% | 85% | 0% |  |  |  |  |  |  |  | pest or weed control at 50 ppm (Piricularia oryzae): 75%
CCCCCCCCNC(=O)/C=C\SC(=O)c1ccc([N+](=O)[O-])c(OC)c1 [Compound 105, N-octyl-cis-3-[(3-methoxy-4-nitrobenzoyl)thio]acrylamide] |  |  |  |  |  |  |  | ≥ 125 µg/mL |  |  |  |  |  | > 250 µg/mL | 0% | < 2 µg/mL | > 250 µg/mL | 0% | < 2 µg/mL | 90% | pest or weed control at 200 ppm [11]: 0%; MIC (Aspergillus niger [16]): 24 µg/mL (≈ 60.8 µM); MIC (Staphylococcus aureus [17]): > 250 µg/mL
CCCCCCCCNC(=O)/C=C\SC(=O)c1ccc(C)cc1C [Compound 43, N-octyl-cis-3-[(2,4-dimethylbenzoyl)thio]acrylamide] | > 500 µg/mL | > 500 µg/mL | > 500 µg/mL | > 500 µg/mL |  | 16 µg/mL (≈ 46 µM) | > 500 µg/mL |  | 50% | 0% | 0% | 50% |  |  |  |  |  |  |  |  | pest or weed control at 100 ppm (Phytophthora infestans; [18]): 0%; EC50 (Pythium ultimum): 5.2 µg/mL (≈ 15 µM); pest or weed control at 100 ppm (Piricularia oryzae): 0%
CCCCCCCCNC(=O)/C=C\SC(=O)N(c1ccccc1)c1ccccc1 [Compound 41, N-octyl-cis-3-(diphenylaminocarbonylthio)acrylamide] | > 500 µg/mL | > 500 µg/mL | ≥ 500 µg/mL | > 500 µg/mL |  | > 500 µg/mL | > 500 µg/mL | > 250 µg/mL |  |  |  |  | 0% |  | 0% |  |  | 0% |  | 0% | pest or weed control at 25 ppm [11]: 100%; pest or weed control at 200 ppm (Piricularia oryzae): 0%
CCCCCCCCNC(=O)/C=C\SC(=O)CC [Compound 10, N-octyl-cis-3-(propanoylthio)acrylamide] | > 500 µg/mL | > 500 µg/mL | < 4 µg/mL | 16 µg/mL (≈ 58.9 µM) | 90% | < 4 µg/mL | 125 µg/mL (≈ 461 µM) |  | 90% | 0% | 50% | 85% | 0% |  |  |  |  |  |  |  | pest or weed control at 100 ppm (Piricularia oryzae): 80%
C#CCNC(=O)/C=C\SC(=O)c1ccccc1 [Compound 113, N-(2-propynyl)-cis-3-(benzoylthio)acrylamide] |  |  |  |  |  |  |  | 63 µg/mL (≈ 257 µM) |  |  |  |  |  | 31 µg/mL (≈ 126 µM) | 0% | ≥ 125 µg/mL | 125 µg/mL (≈ 510 µM) | 0% | 31 µg/mL (≈ 126 µM) | 50% | pest or weed control at 50 ppm [11]: 25%; MIC (Aspergillus niger [16]): ≥ 250 µg/mL; EC50 (Pythium ultimum): 6.9 µg/mL (≈ 28.1 µM); pest or weed control at 200 ppm (Piricularia oryzae): 0%; MIC (Staphylococcus aureus [17]): 63 µg/mL (≈ 257 µM)
CCCCCCCCNC(=O)/C=C\SC(=O)CCCl [Compound 24, N-octyl-cis-3-[(3-chloropropanoyl)thio]acrylamide] |  |  |  |  |  |  |  | > 250 µg/mL |  | 0% | 0% |  | 0% | > 250 µg/mL |  | 12 µg/mL (≈ 39.2 µM) | > 250 µg/mL |  | < 2 µg/mL |  | pest or weed control at 100 ppm (Phytophthora infestans; [18]): 95%; MIC (Aspergillus niger [16]): 63 µg/mL (≈ 206 µM); pest or weed control at 100 ppm (Piricularia oryzae): 0%; MIC (Staphylococcus aureus [17]): > 250 µg/mL
